Experimental data taken from patent publication US20090163525A1, “SUBSTITUTED QUINAZOLINES WITH ANTI-CANCER ACTIVITY” (ASTRAZENECA AB, priority 2006, published 2009).

Molecular target: Mutant B-Raf (V600E) enzyme (MT B-Raf) (Homo sapiens, UniProt P15056, V600E)
Experiment: B-Raf in vitro AlphaScreen assay
Type: biochemical
Conditions: phosphorylation of biotinylated HIS-MEK-AVI, 24 μM ATP in mix
Description: B-Raf In-vitro AlphaScreen Assay
MT B-Raf was expressed in insect cells and affinity purified by Ni^+2 agarose followed by Q-Sepharose chromatography. Typical yield was 1.08 mg/ml at >90% purity.
The phosphorylation of the MT B-Raf substrate in the presence and absence of the compound of interest was determined. Briefly, 5 μl of enzyme/substrate/adenosine triphosphate (ATP) mix consisting of 0.12 nM MT B-Raf, 84 nM biotinylated HIS-MEK-AVI, and 24 μM ATP in 1.2× buffer was preincubated with 2 μl of compound for 20 minutes at 25° C. Reactions were initiated with 5 μl of Metal mix consisting of 24 mM MgCl2 in 1.2× buffer and incubated at 25° C. for 60 minutes and reactions were stopped by addition of 5 μl of Detection mix consisting of 20 mM HEPES, 102 mM ethylenediamine tetraacetic acid, 1.65 mg/ml BSA, 136 mM NaCl, 3.4 nM Phospho-MEK1/2 (Ser217/221) antibody (Catalog #9121, Cell Signaling Technology, Mass.), 40 μg/ml Streptavidin donor beads (Perkin Elmer, Mass., Catalog #6760002), and 40 μg/ml Protein A acceptor beads (Perkin Elmer, Mass., Catalog #6760137). Plates were incubated at 25° C. for 18 hours in the dark. Phosphorylated substrate was detected by an EnVision plate reader (Perkin Elmer, Mass.) 680 nm excitation, 520-620 nm emission. Data was graphed and IC50s calculated using Excel Fit (Microsoft).

Sequence of Mutant B-Raf (V600E) enzyme (MT B-Raf) (P15056 whole entry V600E): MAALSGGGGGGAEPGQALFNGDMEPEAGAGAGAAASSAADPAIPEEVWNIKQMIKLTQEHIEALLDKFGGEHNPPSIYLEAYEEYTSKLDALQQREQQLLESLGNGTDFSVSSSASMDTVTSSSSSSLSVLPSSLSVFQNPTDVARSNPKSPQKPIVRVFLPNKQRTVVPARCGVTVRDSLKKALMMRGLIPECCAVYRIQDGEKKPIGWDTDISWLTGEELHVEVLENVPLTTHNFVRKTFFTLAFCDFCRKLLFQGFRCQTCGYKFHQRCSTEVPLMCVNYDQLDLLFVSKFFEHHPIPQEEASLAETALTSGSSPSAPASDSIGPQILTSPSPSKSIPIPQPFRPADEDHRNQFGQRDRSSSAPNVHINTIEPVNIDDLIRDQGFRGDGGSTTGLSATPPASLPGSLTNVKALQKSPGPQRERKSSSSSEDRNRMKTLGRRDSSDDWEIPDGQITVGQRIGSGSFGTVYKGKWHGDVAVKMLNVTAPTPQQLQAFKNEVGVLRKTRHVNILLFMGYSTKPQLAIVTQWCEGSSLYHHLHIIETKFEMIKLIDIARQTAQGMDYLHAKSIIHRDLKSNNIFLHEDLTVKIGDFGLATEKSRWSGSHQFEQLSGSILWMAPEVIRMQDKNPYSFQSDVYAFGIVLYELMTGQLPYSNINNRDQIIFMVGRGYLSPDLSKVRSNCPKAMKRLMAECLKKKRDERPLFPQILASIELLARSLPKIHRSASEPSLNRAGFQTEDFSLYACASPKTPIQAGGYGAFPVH

| IC50 [µM] | Compound |
| --- | --- |
| 0.363 | Cc1ccc(NC(=O)Nc2ccc(Cl)c(Cl)c2)cc1Nc1ccc2ncn(C)c(=O)c2c1 [Example 2, N-(3,4-Dichlorophenyl)-N′-{4-methyl-3-[(3-methyl-4-oxo-3,4-dihydroquinazolin-6-yl)amino]phenyl}urea] |
| 0.099 | Cc1ccc(NC(=O)Nc2cccc(C(C)(C)C#N)c2)cc1Nc1ccc2ncn(C)c(=O)c2c1 [Example 6, N-[3-(1-Cyano-1-methylethyl)phenyl]-N′-{4-methyl-3-[(3-methyl-4-oxo-3,4-dihydroquinazolin-6-yl)amino]phenyl}urea] |

| Compound | IC50 [µM] |
| --- | --- |
| Cc1ccc(NC(=O)Nc2cccc(C(F)(F)F)c2)cc1Nc1ccc2ncn(C)c(=O)c2c1 [Example 1, N-{4-Methyl-3-[(3-methyl-4-oxo-3,4-dihydroquinazolin-6-yl)amino]phenyl}-N-′[3-(trifluoromethyl)phenyl]urea] | 0.0143 |
